Assay: Antioxidant activity by ABTS radical assay (Trolox Equivalent Antioxidant Capacity)
Type: biochemical
Settings: standard
Experimental: Antioxidant activity was determined by the ABTS assay using a spectrophotometric method for antioxidant activity using the ABTS radical assay (expressed as Trolox Equivalent Antioxidant Capacity) based on the method of Miller & Rice-Evans (Miller, N.J.; Rice-Evans, C.A. 1997: Factors influencing the antioxidant activity determined by the ABTS+radical cation assay. Free Radical Research 26(3): 195-199). All samples were diluted with warm water as required to bring into the appropriate range for the assay.

COc1cc(C(=O)O)cc(OC)c1O [syringic acid]
Antioxidant Activity by ABTS Assay, Average (760 mg/kg): 499.6 μmole TEAC/100 g

O=C(O)c1cc(O)c(O)c(O)c1 [gallic acid]
Antioxidant Activity by ABTS Assay, Average (700 mg/kg): 1695.4 μmole TEAC/100 g

COC(=O)c1cc(OC)c(O)c(OC)c1 [methylsyringate, methyl syringate]
Antioxidant Activity by ABTS Assay, Average (290 mg/kg): 85.1 μmole TEAC/100 g

COc1ccccc1C(=O)O [2-methoxybenzoic, 2-methoxybenzoic acid]
Antioxidant Activity by ABTS Assay, Average (80 mg/kg): 51.8 μmole TEAC/100 g
